# Assay results as given in paper PMC12752627, “Discovery of a Potent and Selective TEAD Degrader with Durable Degradation Activity” (Advanced Science, 2025).
# What was measured:
# 867 cancer cell lines = test: PRISM assay (barcoded cell line screening, 5 days); format: cell-based; parameters: KG-FP-003-AUC: scale not given here;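 further: top test concentration 10 mM in eight-point dilution series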
# Protocol: The principle of the PRISM assay has been described elsewhere and was conducted as previously outlined by the PRISM team at the Broad Institute.^[ [14], [31] ^] In PRISM (MTS027) experiments, KG‐FP‐003 was tested across 867 different cancer cell lines. Cells were treated with eight concentration gradients, ranging from 4.6 nM to […], in triplicate dilutions over a period of five days. Each plate was treated with 20 µM bortezomib as a positive control and DMSO as a negative control. Three replicate experiments were performed for each compound. The resulting data were analyzed using GraphPad PRISM 9.5.
# CRBN = target: T1, CRBN (Homo sapiens, UniProt Q96SW2); test: Intracellular CRBN binding in NanoLuc-CRBN-overexpressing HEK293T cells; format: cell-based; conditions: read-out: Cellular CRBN Binding IC50 (nM ± SD)
# T1 construct: expressed in transfected cells; host or cells: HEK293T
# T1 sequence (Q96SW2 whole entry): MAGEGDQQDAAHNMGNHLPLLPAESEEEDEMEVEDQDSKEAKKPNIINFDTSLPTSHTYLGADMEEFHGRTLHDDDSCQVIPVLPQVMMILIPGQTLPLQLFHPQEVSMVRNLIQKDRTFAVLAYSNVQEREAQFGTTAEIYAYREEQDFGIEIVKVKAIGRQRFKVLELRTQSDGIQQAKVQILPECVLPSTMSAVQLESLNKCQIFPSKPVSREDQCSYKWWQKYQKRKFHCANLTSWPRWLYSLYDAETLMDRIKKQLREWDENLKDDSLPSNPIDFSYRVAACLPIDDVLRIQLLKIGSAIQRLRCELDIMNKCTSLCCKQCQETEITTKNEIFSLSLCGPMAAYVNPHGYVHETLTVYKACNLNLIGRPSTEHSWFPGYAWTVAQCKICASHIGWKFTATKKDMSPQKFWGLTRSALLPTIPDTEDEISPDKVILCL
# Protocol: NanoLuc‐CRBN‐overexpressing HEK293T were seeded in 96‐well plates at a density of 2000 per well. The following day, compounds was added to the plate starting from 10 µM for a 3‐fold gradient dilution and incubated for 2 h. […] Finally, the signal was measured using an Envision plate reader (Revvity) and the data were analyzed using the GraphPad Prism 9.5 software.
smiles,measurement,setting,value
CNC(=O)c1cc2c(c(F)c1-c1c(Cl)c(F)cc3c1C[C@@](CN[C@H]1CC[C@H](C(=O)N4CCC(CC5CCN(C(=O)COc6ccc(N7CCC(=O)NC7=O)c(C)c6)CC5)CC4)CC1)(c1ccccc1)O3)[C@@H](O)[C@@H](C)C2 [KG-FP-003],PRISM AUC,"867 cancer cell lines; Cell line: ES2, 5 days",0.62
same,PRISM AUC,"867 cancer cell lines; Cell line: HOS, 5 days",0.53
same,PRISM AUC,"867 cancer cell lines; Cell line: KLE, 5 days",0.53
same,KG-FP-003-AUC,867 cancer cell lines; DANG_PANCREAS ACH-000243 PR500,0.98
same,KG-FP-003-AUC,867 cancer cell lines; DAOY_CENTRAL_NERVOUS_SYSTEM ACH-000211 PR300,0.93
same,KG-FP-003-AUC,867 cancer cell lines; DAOY_CENTRAL_NERVOUS_SYSTEM ACH-000211 PR500,0.92
same,KG-FP-003-AUC,867 cancer cell lines; DBTRG05MG_CENTRAL_NERVOUS_SYSTEM ACH-000863 PR500,0.64
same,KG-FP-003-AUC,867 cancer cell lines; DEL_HAEMATOPOIETIC_AND_LYMPHOID_TISSUE ACH-000233 PR300,0.87
same,KG-FP-003-AUC,867 cancer cell lines; DETROIT562_UPPER_AERODIGESTIVE_TRACT ACH-000207 PR500,0.81
same,KG-FP-003-AUC,867 cancer cell lines; DKMG_CENTRAL_NERVOUS_SYSTEM ACH-000244 PR500,0.85
same,KG-FP-003-AUC,867 cancer cell lines; DL_SOFT_TISSUE ACH-001059 PR300,0.70
same,KG-FP-003-AUC,867 cancer cell lines; DMS53_LUNG ACH-000698 PR300,1.00
same,KG-FP-003-AUC,867 cancer cell lines; DMS273_LUNG ACH-000749 PR500,0.99
same,KG-FP-003-AUC,867 cancer cell lines; DND41_HAEMATOPOIETIC_AND_LYMPHOID_TISSUE ACH-000981 PR300,0.75
same,KG-FP-003-AUC,867 cancer cell lines; DOHH2_HAEMATOPOIETIC_AND_LYMPHOID_TISSUE ACH-000056 PR300,0.76
same,KG-FP-003-AUC,867 cancer cell lines; DOTC24510_CERVIX ACH-001341 PR300,0.78
same,KG-FP-003-AUC,867 cancer cell lines; DU145_PROSTATE ACH-000979 PR500,0.93
same,KG-FP-003-AUC,867 cancer cell lines; DU4475_BREAST ACH-000258 PR300,0.97
same,KG-FP-003-AUC,867 cancer cell lines; DV90_LUNG ACH-000925 PR500,1.00
same,KG-FP-003-AUC,867 cancer cell lines; EB1_HAEMATOPOIETIC_AND_LYMPHOID_TISSUE ACH-000877 PR300,0.99
same,KG-FP-003-AUC,867 cancer cell lines; EBC1_LUNG ACH-000563 PR500,0.77
same,KG-FP-003-AUC,867 cancer cell lines; ECC2_BILIARY_TRACT ACH-001997 PR300,0.76
same,KG-FP-003-AUC,867 cancer cell lines; ECGI10_OESOPHAGUS ACH-000305 PR500,0.96
same,KG-FP-003-AUC,867 cancer cell lines; EFE184_ENDOMETRIUM ACH-000435 PR300,0.72
same,KG-FP-003-AUC,867 cancer cell lines; EFM19_BREAST ACH-000330 PR300,0.99
same,KG-FP-003-AUC,867 cancer cell lines; EFM192A_BREAST ACH-000117 PR500,0.99
same,KG-FP-003-AUC,867 cancer cell lines; EFO21_OVARY ACH-000308 PR500,0.71
same,KG-FP-003-AUC,867 cancer cell lines; EFO27_OVARY ACH-000936 PR500,0.77
same,KG-FP-003-AUC,867 cancer cell lines; EGI1_BILIARY_TRACT ACH-001494 PR300,0.88
same,KG-FP-003-AUC,867 cancer cell lines; EKVX_LUNG ACH-000706 PR300,0.71
same,KG-FP-003-AUC,867 cancer cell lines; EM2_HAEMATOPOIETIC_AND_LYMPHOID_TISSUE ACH-000295 PR300,0.94
same,KG-FP-003-AUC,867 cancer cell lines; EMTOKA_ENDOMETRIUM ACH-001495 PR300,0.83
same,KG-FP-003-AUC,867 cancer cell lines; EOL1_HAEMATOPOIETIC_AND_LYMPHOID_TISSUE ACH-000198 PR300,0.69
same,KG-FP-003-AUC,867 cancer cell lines; ES2_OVARY ACH-000906 PR500,0.62
same,KG-FP-003-AUC,867 cancer cell lines; ESS1_ENDOMETRIUM ACH-000913 PR500,0.56
same,KG-FP-003-AUC,867 cancer cell lines; EW8_BONE ACH-000499 PR300,0.98
same,KG-FP-003-AUC,867 cancer cell lines; EWS502_BONE ACH-000279 PR300,0.99
same,KG-FP-003-AUC,867 cancer cell lines; EWS502_BONE ACH-000279 PR500,0.99
same,KG-FP-003-AUC,867 cancer cell lines; FADU_UPPER_AERODIGESTIVE_TRACT ACH-000846 PR500,0.92
same,KG-FP-003-AUC,867 cancer cell lines; FLO1_OESOPHAGUS ACH-001500 PR300,0.75
same,KG-FP-003-AUC,867 cancer cell lines; FTC133_THYROID ACH-000903 PR500,0.99
same,KG-FP-003-AUC,867 cancer cell lines; FTC238_THYROID ACH-000897 PR500,0.91
same,KG-FP-003-AUC,867 cancer cell lines; G292CLONEA141B1_BONE ACH-000082 PR300,0.64
same,KG-FP-003-AUC,867 cancer cell lines; G292CLONEA141B1_BONE ACH-000082 PR500,0.53
same,KG-FP-003-AUC,867 cancer cell lines; G361_SKIN ACH-000572 PR500,1.00
same,KG-FP-003-AUC,867 cancer cell lines; G402_SOFT_TISSUE ACH-000375 PR300,0.43
same,KG-FP-003-AUC,867 cancer cell lines; G402_SOFT_TISSUE ACH-000375 PR500,0.69
same,KG-FP-003-AUC,867 cancer cell lines; G415_BILIARY_TRACT ACH-001850 PR300,0.65
same,KG-FP-003-AUC,867 cancer cell lines; GAMG_CENTRAL_NERVOUS_SYSTEM ACH-000098 PR500,0.45
same,KG-FP-003-AUC,867 cancer cell lines; GB2_BILIARY_TRACT ACH-001961 PR300,0.92
same,KG-FP-003-AUC,867 cancer cell lines; GCIY_STOMACH ACH-000047 PR500,0.98
same,KG-FP-003-AUC,867 cancer cell lines; GCT27_TESTIS ACH-001502 PR300,0.73
same,KG-FP-003-AUC,867 cancer cell lines; GCT_SOFT_TISSUE ACH-000835 PR500,0.53
same,KG-FP-003-AUC,867 cancer cell lines; GI1_CENTRAL_NERVOUS_SYSTEM ACH-000756 PR500,0.74
same,IC50,CRBN,962 ± 86 nM
